Reference: US20130190324A1, “TOPICAL OCULAR DRUG DELIVERY” (The Regents of the University of Colorado, a body corporate, priority 2011, published 2013)
≈ marks a conversion by molar mass, not a printed value. Entries after “also recorded” stand apart in the source; their conditions may differ. Like-named read-outs stand apart in the source and are kept apart here. Each block holds one compound with its values, some of them ahead of it.

Key:
[1] = Aqueous solubility of GFX and ion pair complex in PBS; type: physicochemical; settings: phosphate buffer saline (PBS), thermodynamic from solid, phosphate buffer saline pH 7.4, 37° C., mean ± SD, n = 3
[2] = single eye drop, cited from earlier work
[3] = tested on: New Zealand white rabbit cornea; experiment: In vitro transport across rabbit cornea (Ussing chamber); type: in vitro ADME; settings: for transport in presence of OCT competitive inhibitor MPP+: MPP+ 500 μM for GFX-ARG ion pair
Description: (§1) In vitro transport of […], and GFX-LYS were carried out across the New Zealand white rabbit cornea and sclera-choroid-[…]). Rabbit eyes were obtained within 24 hr of harvesting from Pel-Freez Biologicals (Rogers, Ark.) and shipped overnight in Hank's balanced salt solution on wet ice. Eyes were used immediately upon arrival. Eyes were washed with assay buffer and cleaned from the muscle and unwanted tissues. […] The small part of the sclera left with cornea helps in mounting the cornea on Ussing chambers. For isolation of the SCRPE, anterior and posterior parts were separated by a circumferential cut at the limbus. […] After separation of the retina, the eye cup was flattened with small cuts around the globe. […] A circulating water bath was used to maintain the temperature at 37° C. during the transport study. The pH of the assay buffer was maintained at 7.4 using 95% air-5% CO2 aeration which also helps in stirring of bathing solutions. Samples were collected (200 μL) from the receiver side every 30 minute for 3 hr and the lost volume was replaced with fresh assay buffer pre-equilibrated at 37° C. GFX levels were analyzed using an LC-MS/MS assay. […] GFX concentrations in the transport study and ocular tissue samples were analyzed using a validated LC-MS/MS method. […] Chromatographic separation of GFX and the internal standard moxifloxacin was performed on Obelisc C18 column (2.1×10 mm, 3 μm). Elution of analytes was performed using linear gradient elution with mobile phase consisting of 5 mM ammonium formate (pH 3.5) and acetonitrile (pH 3.5) with a flow rate of 300 μl/min and total run time of 6 min.

[4] = In vivo ocular tissue distribution after single topical eye drop; design: species or system pigmented rabbits
Description: Male New Zealand Satin rabbits in the weight range of 1.8 to 3 kg were obtained from Western Oregon Rabbit Company (Philmoth, Oreg.). Rabbits were divided into two groups (2 animals each), one group received GFX solution (5 mg/ml) in sterile phosphate buffer saline (PBS), and the other group received the GFX-ARG (1:1) ion pair complex (5.0 mg/ml) solution in PBS. Rabbits were restrained in a rabbit restrainer and allowed to stabilize for 5-10 minutes. A topical eye drop (30 μl) of drug solution was applied in both eyes of rabbits using a positive displacement pipette (Gilson 10-100 μl) and sterile tips. To minimize the runoff of instilled dose, the eyelids were gently closed for few seconds after dosing. The time of dose administered was recorded for each animal. After 1 hr of dosing, blood samples were collected from the marginal ear vein and rabbits were euthanized by intravenous injection of sodium pentobarbitone (150 mg/kg) in the marginal ear vein. […]
GFX content in rabbit ocular tissues was measured from the tissues by acetonitrile based extraction. […]
The aqueous humor and vitreous samples were analyzed directly after dilution, without extraction. […]
GFX concentrations in the transport study and ocular tissue samples were analyzed using a validated LC-MS/MS method. […]

[5] = tested on: New Zealand white rabbit sclera-choroid-RPE (SCRPE); experiment: In vitro transport across rabbit sclera-choroid-RPE (Ussing chamber); type: in vitro ADME; settings: rabbit SCRPE; for transport in presence of OCT competitive inhibitor MPP+: MPP+ 500 μM for GFX-ARG ion pair
Description: as §1

conjunctiva = experiment: In vitro transport of GFX prodrugs across conjunctiva; type: in vitro ADME, Rabbit
[6] = tested on: calf sclera-choroid-RPE (SCRPE); experiment: In vitro transport of substrate cassette across normoxic and hypoxic calf SCRPE
From the text: (§2) Animals used in this study were those that were sacrificed as part of other experiments approved by the Institutional Animal Care Committee of the Colorado State University (Fort Collins) and University of Colorado Anschutz Medical campus. Hypoxic and normoxic calf eyes were obtained from the Department of Physiology, School of Veterinary Medicine, Colorado State University (Fort Collins, Colo.). Briefly, 1 day old male Holstein calves (n=4) were kept in hypobaric hypoxic chambers (PB=445 mm Hg) for 2 weeks. For control experiment, age matched calves (n=4) were kept at ambient altitude (PB=650 mm Hg) and normoxia for two weeks. Hypoxic and normoxic rat eyes were obtained from the Department of Medicine, University of Colorado Anschutz Medical campus (Aurora, Colo.). Sprague Dawley rats (n=4) were maintained in hypobaric hypoxic chambers (PB=380 mm Hg) for 6 weeks and age matched controls were kept at ambient pressure and normoxia.
(§3) In vitro transport studies across hypoxic and control calf cornea and sclera-choroid-RPE (SCRPE) were carried using cassette dosing approach. A cassette of drug transporter substrates, Gly-Sar (PEPT), valacylovir (ATB^0+), MPP^+ (OCT), and phenylacetic acid (MCT) at a concentration of 100 μM each in assay buffer was prepared. Briefly, the calf eyes were harvested immediately after euthanasia and transferred to the laboratory on ice. Upon arrival in the lab, the eyes were washed with assay buffer and cleaned from muscle and unwanted tissues. Anterior and posterior parts were separated by circumferential cut at the limbus. Vitreous was removed and the neural retina was separated from the choroid-RPE by filling the eye cup with assay buffer. The retina afloat in assay buffer was isolated and the eye cup was divided into two pieces (˜1.5×1.5 cm) of sclera-choroid-RPE. Isolated tissues were mounted on modified Ussing chambers (Navicyte, Sparks, Nev.) such that the episcleral side of SCRPE or epithelial side of cornea was facing the donor chamber and retinal side or endothelial side of the cornea was facing the receiver chamber. The chambers were filled with 1.5 ml of assay buffer at 37° C. with (donor side) or without (receiver side) the cocktail of drug transporter substrates. For the study of effect of transporter inhibitors, cocktail mixture (500 μM) of transporter inhibitors was added on both donor and acceptor sides.
(§4) During the transport study, the bathing fluids were maintained at 37° C. using circulating warm water. The pH of the fluids was maintained at pH 7.4 using 95% air-5% CO2 aeration. Samples were collected (200 μL) from receiver side every hour for 6 hours and the removed volume was replaced with fresh assay buffer pre-equilibrated to 37° C. Drug levels were analyzed using a LC-MS/MS assay. Permeation data were corrected for dilution of the receiver concentrations with sample volume replenishment.
(§5) Analyte concentrations in transport study samples were measured using LC-MS/MS method after 5-fold dilution with acetonitrile to reduce the salt concentrations. A cassette analysis method was developed for simultaneous analysis of Gly-Sar, valacylovir, and MPP Phenyl acetic acid was analyzed separately with a negative ionization method and a normal phase separation method. An API-3000 triple quadrupole mass spectrometry (Applied Biosystems, Foster City, Calif., USA) coupled with a PerkinElmer series-200 liquid chromatography (Perkin Elmer, Waltham, Mass., USA) system was used for analysis. Gly-Sar, valacylovir and MPP were separated on Supelco C-5 column (2.1×10 mm, 3 μm) using water containing 0.1% formic acid (A) and acetonitrile:methanol (50:50 v/v) containing 0.1% formic acid (B) as mobile phase. A linear gradient elution at a flow rate of 0.3 ml/min with a total run time of 9 min was employed. Phenyl acetic acid was separated in normal phase separation mode on Obelisc-N silica column (2.1×10 mm, 3 μM) using 5 mM ammonium formate at pH 3.5 (A) and acetonitrile (B) as mobile phase.

calf cornea = experiment: In vitro transport of substrate cassette across normoxic and hypoxic calf cornea
From the text: as §2, §3, §4, §5

[7] = cited from earlier work

- solubility at 24 h [1]: 5.49 mg/mL (≈ 14.6 mM)
- solubility (physchem; water): 0.64 mg/mL (≈ 1.7 mM)
- solubility (physchem; water for injection): 2.5 mg/mL (≈ 6.66 mM)
SMILES: COc1c(N2CCNC(C)C2)c(F)cc2c(=O)c(C(=O)O)cn(C3CC3)c12 (stereo not shown) [GFX, gatifloxacin]
- reported Tmax ([2]; aqueous humor): 19.8 min
- reported Tmax ([2]; cornea): 4.98 min

- cumulative % transport / permeability compared with GFX (in words) [3]: significantly improved permeability
- transport in presence of OCT competitive inhibitor MPP+ [3]: inhibited significantly
- cumulative % transport in presence vs absence of ATB0+ inhibitor α-methyl tryptophan ([3]; inhibitor 500 μM): no significant difference
- solubility (physchem; water): 25.5 mg/mL (≈ 48 mM)
- solubility (physchem; water for injection): 25.5 mg/mL (≈ 48 mM)
- cumulative % transport / permeability compared with GFX (in words) [5]: significantly improved permeability
- transport in presence of OCT competitive inhibitor MPP+ [5]: inhibited significantly
- cumulative % transport in presence vs absence of ATB0+ inhibitor α-methyl tryptophan ([5]; inhibitor 500 μM): no significant difference
SMILES: COc1c(N2CCN(C(=O)C(N)CCCNC(=N)N)C(C)C2)c(F)cc2c(=O)c(C(=O)O)cn(C3CC3)c12 (stereo not shown) [GFX-ARG, 7-(4-(2-amino-5-guanidinopentanoyl)-3-methylpiperazin-1-yl)-1-cyclopropyl-6-fluoro-8-methoxy-4-oxo-1,4-dihydroquinoline-3-carboxylic acid]
- transport in presence of OCTN inhibitor L-carnitine ([3]; L-carnitine 500 μM): did not show any significant inhibitory effect
- GFX ocular tissue levels compared with GFX alone (in words) ([4]; all ocular tissues, 1 hr after single topical 30 μl eye drop, 5 mg/ml in PBS): higher concentrations of GFX in all ocular tissues; also recorded: enhanced ocular delivery to all ocular tissues
- transport in presence of OCTN inhibitor L-carnitine ([5]; L-carnitine 500 μM): did not show any significant inhibitory effect

- cumulative % transport / permeability compared with GFX (in words) [3]: significantly (p<0.01) higher than GFX
- transport in presence of OCT competitive inhibitor MPP+ [3]: significantly inhibited
- cumulative % transport compared with GFX (in words) (conjunctiva): significantly (p<0.01) higher than GFX
- transport in presence of OCT competitive inhibitor MPP+ (conjunctiva): significantly inhibited
- solubility (physchem; water for injection): 33.3 mg/mL (≈ 72.4 mM)
- cumulative % transport / permeability compared with GFX (in words) [5]: significantly (p<0.01) higher than GFX
- transport in presence of OCT competitive inhibitor MPP+ [5]: significantly inhibited
SMILES: COc1c(N2CCNC(C)C2)c(F)cc2c(=O)c(C(=O)NCCCN(C)C)cn(C3CC3)c12 (stereo not shown) [GFX-OCT, 1-cyclopropyl-N-(3-(dimethylamino)propyl)-6-fluoro-8-methoxy-7-(3-methylpiperazin-1-yl)-4-oxo-1,4-dihydroquinoline-3-carboxamide]
- levels in posterior tissues compared with GFX (in words) ([4]; vitreous humor and CRPE, 1 h after topical eye drop): higher concentrations of GFX in all posterior tissues

SMILES: CC(C)[C@H](N)C(=O)OCCOCn1cnc2c(=O)[nH]c(N)nc21 [valacylovir]
- apparent permeability (Papp) across hypoxic vs normoxic tissue (in words) ([6]; calf SCRPE): significantly higher across normoxic SCRPE than hypoxic SCRPE
- transport across hypoxic vs normoxic tissue (in words) ([6]; calf SCRPE, cassette 100 μM): significantly decreased in hypoxic calf SCRPE; also recorded: significantly higher across normoxic calf SCRPE than hypoxic calf SCRPE
- decrease in cumulative % transport across hypoxic tissue ([6]; hypoxic vs normoxic calf SCRPE): 61%
- apparent permeability (Papp) across hypoxic vs normoxic tissue (in words) (calf cornea; calf cornea): significantly higher across normoxic cornea than hypoxic cornea
- transport across hypoxic vs normoxic tissue (in words) (calf cornea; calf cornea, cassette 100 μM): significantly higher across normoxic calf cornea than hypoxic calf cornea
- decrease in cumulative % transport across hypoxic tissue (calf cornea; hypoxic vs normoxic calf cornea): 36%
- increase in oral bioavailability as compared to parent acyclovir [7]: three to five fold increase
